Structures are written as SMILES. The source made the active and inactive calls. No cut-off for these calls is given here.

This note sets out measurements from ChEMBL document CHEMBL5038589, “Design, Synthesis, and Structure-Activity Relationship of N-Aryl-N'-(thiophen-2-yl)thiourea Derivatives as Novel and Specific Human TLR1/2 Agonists for Potential Cancer Immunotherapy” (J Med Chem, 2021).

In one data set the test system is B cell. The data set can be described thus: Immunostimulatory activity in human B cells assessed as fold increase at 0.1 to 10 uM incubated for 48 hrs by flow cytometry analysis. It counts as functional. The note with it: dose 0.1-10 µM. Background: Flow cytometry measures light scatter and fluorescence of single cells or particles in a stream.
A short description of data set [1]: Cytotoxicity against HEK-Blue TLR2 cells incubated for 24 hrs by CCK-8 assay. To be noted: human. It counts as toxicity, cell-based, HEK-Blue hTLR2. For orientation: Formazan colour is commonly taken as a measure of viable cells.
Data set [2] relates to THP-1. The experiment in a line: Induction of TNFalpha secretion in TLR2 knock down human THP-1 cells at 20 to 40 uM incubated for 24 hrs by ELISA method. It counts as functional, cell-based. The note with it: dose 20-40 µM. For orientation: ELISA stands for enzyme-linked immunosorbent assay.
Data set [3] relates to THP-1. The experiment in a line: Induction of IL-1beta secretion in human PMA-differentiated THP-1 cells incubated for 24 hrs by ELISA method. It counts as functional, cell-based. To be noted: dose 0.01-10 µM.
Data set [4] has as its system HCT-116. The experiment in a line: Induction of apoptosis in human HCT-116 cells cocultured with PMA-differentiated THP-1 cells assessed as early apoptotic cells at 10 uM measured after 24 hrs using annexin V-FITC/PI staining based flow cytometry. It counts as functional.
Data set [5] has as its system THP-1. The experiment in a line: Upregulation of MyD88 expression in human PMA-differentiated THP-1 cells assessed as induction of p65 phosphorylation at 10 uM incubated for 2 hrs by Western blot analysis. It counts as functional, cell-based.
Data set [6] addresses Toll-like receptor 7 (Homo sapiens) (UniProt Q9NYK1). The data set can be described thus: Agonist activity at TLR7 in HEK-Blue hTLR7 cells at 0.1 to 100 uM incubated for 24 hrs by Quanti-Blue based SEAP assay. It counts as cell-based. To be noted: dose 0.1-100 µM.
Another data set deals with PBMC. The data set can be described thus: Induction of TNFalpha secretion in human PBMC incubated for 24 hrs by ELISA method. To be noted: dose 0.01-10 µM. It counts as functional, cell-based.
Data set [7] has as its system Macrophage. The experiment in a line: Induction of TNFalpha secretion in wild-type C57BL/6 mouse peritoneal macrophages at 0.01 to 10 uM incubated for 24 hrs by ELISA method. It counts as functional, cell-based. To be noted: dose 0.01-10 µM.
The next data set deals with Monocyte. The experiment in a line: Immunostimulatory activity in human monocytes assessed as fold increase at 0.1 to 10 uM incubated for 48 hrs by flow cytometry analysis. It counts as functional. The note with it: dose 0.1-10 µM.
The subject of data set [8] is HCT-116. The data set can be described thus: Induction of apoptosis in human HCT-116 cells upto 100 uM by microplate reader analysis. It counts as functional, cell-based. To be noted: dose microM <=100.
A further data set concerns B-cell line. The experiment in a line: Immunostimulatory activity in mouse C57 spleen B cells in assessed as fold increase at 0.1 to 10 uM incubated for 48 hrs by flow cytometry analysis. It counts as functional, cell-based. The note with it: dose 0.1-10 µM.
The subject of data set [9] is THP-1. The data set can be described thus: Induction of TNFalpha secretion in human PMA-differentiated THP-1 cells incubated for 24 hrs by ELISA method. The note with it: dose 0.01-10 µM. It counts as functional, cell-based.
Data set [10] concerns THP-1. The experiment in a line: Upregulation of MyD88 expression in human PMA-differentiated THP-1 cells assessed as downregulation of IkappaBalpha at 10 uM incubated for 2 hrs by Western blot analysis. It counts as functional, cell-based.
Data set [11] has as its system HCT-116. The experiment in a line: Induction of apoptosis in human HCT-116 cells cocultured with PMA-differentiated THP-1 cells assessed as late apoptotic cells at 10 uM measured after 24 hrs using annexin V-FITC/PI staining based flow cytometry. It counts as functional.
In data set [12] the test system is Macrophage. The experiment in a line: Induction of IL-6 secretion in wild-type C57BL/6 mouse peritoneal macrophages at 0.01 to 10 uM incubated for 24 hrs by ELISA method. It counts as functional, cell-based. To be noted: dose 0.01-10 µM.
Data set [13] has as its system MCF7. The experiment in a line: Induction of apoptosis in human MCF7 cells cocultured with PMA-differentiated THP-1 cells assessed as early apoptotic cells at 10 uM measured after 24 hrs by annexin V-FITC/PI staining based flow cytometry (reference value: 7.87 %). It counts as functional.
Data set [14] in a line: Stability in mouse liver microsomes assessed as half life at 250 uM in presence of NADPH by HPLC-MS analysis. It counts as ADME.
Data set [15] relates to MCF7. The experiment in a line: Induction of apoptosis in human MCF7 cells cocultured with PMA-differentiated THP-1 cells assessed as late apoptotic cells at 10 uM measured after 24 hrs by annexin V-FITC/PI staining based flow cytometry (reference value: 5.41 %). It counts as functional.
In data set [16] the target is Nuclear factor NF-kappa-B complex (Homo sapiens) (UniProt Q00653+P19838+Q04206). The data set can be described thus: Activation of NF-kappaB signalling in HEK-Blue hTLR2 cells at 10 uM in presence of triptolide. It counts as cell-based.
Chain of Nuclear factor NF-kappa-B complex (Homo sapiens) (P19838 whole entry, looked up): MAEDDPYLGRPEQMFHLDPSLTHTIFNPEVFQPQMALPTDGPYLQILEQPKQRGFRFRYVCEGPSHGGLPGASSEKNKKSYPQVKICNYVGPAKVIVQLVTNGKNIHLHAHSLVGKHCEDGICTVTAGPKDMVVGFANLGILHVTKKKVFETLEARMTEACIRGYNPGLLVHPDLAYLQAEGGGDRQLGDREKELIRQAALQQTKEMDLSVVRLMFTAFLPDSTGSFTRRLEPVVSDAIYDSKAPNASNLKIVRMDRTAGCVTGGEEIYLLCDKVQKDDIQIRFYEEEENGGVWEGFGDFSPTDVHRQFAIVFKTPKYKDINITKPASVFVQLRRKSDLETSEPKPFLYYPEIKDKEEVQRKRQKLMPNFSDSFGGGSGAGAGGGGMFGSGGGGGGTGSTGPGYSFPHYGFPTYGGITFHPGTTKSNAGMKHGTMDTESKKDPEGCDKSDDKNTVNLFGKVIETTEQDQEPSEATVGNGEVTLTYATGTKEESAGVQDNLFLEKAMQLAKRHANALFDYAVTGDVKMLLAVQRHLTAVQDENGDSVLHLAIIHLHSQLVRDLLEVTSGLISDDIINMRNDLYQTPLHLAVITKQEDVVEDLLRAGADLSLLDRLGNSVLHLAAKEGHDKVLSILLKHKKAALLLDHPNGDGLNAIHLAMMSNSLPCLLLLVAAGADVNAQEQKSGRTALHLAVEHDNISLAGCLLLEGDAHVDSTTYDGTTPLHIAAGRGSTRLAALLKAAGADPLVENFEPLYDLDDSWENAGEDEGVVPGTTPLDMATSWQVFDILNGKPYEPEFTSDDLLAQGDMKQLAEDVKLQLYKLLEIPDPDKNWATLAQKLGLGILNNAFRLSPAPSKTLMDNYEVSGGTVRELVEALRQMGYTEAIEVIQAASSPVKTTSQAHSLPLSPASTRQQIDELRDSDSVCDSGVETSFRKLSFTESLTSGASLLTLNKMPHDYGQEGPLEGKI
Chain of Nuclear factor NF-kappa-B complex (Homo sapiens) (Q00653 whole entry, looked up): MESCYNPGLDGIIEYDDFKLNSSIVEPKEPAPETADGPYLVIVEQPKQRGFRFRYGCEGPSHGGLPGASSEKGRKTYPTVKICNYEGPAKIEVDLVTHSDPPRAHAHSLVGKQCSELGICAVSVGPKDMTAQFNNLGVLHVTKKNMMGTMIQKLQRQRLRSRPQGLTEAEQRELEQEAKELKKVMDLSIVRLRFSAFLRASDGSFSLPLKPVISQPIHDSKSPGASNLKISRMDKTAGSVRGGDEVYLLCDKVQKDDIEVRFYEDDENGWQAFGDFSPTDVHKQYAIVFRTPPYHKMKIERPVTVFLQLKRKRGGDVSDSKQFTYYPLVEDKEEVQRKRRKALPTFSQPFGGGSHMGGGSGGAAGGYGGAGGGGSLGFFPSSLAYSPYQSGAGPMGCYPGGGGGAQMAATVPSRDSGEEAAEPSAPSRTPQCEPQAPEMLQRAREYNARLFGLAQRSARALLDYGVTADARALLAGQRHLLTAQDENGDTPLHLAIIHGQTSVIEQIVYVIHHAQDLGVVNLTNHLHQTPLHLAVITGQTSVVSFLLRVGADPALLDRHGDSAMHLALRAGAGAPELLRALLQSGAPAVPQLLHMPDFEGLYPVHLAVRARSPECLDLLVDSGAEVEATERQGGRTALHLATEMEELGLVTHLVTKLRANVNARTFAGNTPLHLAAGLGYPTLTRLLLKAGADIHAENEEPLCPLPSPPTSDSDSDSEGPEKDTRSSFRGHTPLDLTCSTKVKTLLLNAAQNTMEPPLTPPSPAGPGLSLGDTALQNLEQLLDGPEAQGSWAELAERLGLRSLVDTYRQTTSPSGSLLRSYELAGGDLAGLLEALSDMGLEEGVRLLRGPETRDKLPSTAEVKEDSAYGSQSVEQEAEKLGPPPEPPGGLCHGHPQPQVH
Chain of Nuclear factor NF-kappa-B complex (Homo sapiens) (Q04206 whole entry, looked up): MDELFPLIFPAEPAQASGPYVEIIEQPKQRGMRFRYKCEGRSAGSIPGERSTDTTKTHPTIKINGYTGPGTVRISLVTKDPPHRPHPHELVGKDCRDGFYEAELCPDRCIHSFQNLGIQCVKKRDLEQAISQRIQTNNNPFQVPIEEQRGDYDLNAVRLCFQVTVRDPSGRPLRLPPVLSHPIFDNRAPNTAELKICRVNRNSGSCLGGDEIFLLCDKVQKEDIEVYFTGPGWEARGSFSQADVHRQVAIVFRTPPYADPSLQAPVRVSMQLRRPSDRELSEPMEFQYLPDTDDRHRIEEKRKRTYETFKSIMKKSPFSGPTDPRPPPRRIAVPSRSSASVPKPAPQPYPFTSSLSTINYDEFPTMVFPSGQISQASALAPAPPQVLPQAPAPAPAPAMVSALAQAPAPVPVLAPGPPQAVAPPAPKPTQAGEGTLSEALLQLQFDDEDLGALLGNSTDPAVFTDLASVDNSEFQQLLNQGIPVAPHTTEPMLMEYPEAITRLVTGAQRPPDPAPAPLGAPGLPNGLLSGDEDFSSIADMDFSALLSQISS
The next data set deals with CD3-positive T cell. The experiment in a line: Immunostimulatory activity in mouse C57 spleen CD3+ T cells in assessed as fold increase at 0.1 to 10 uM incubated for 48 hrs by flow cytometry analysis. It counts as functional, cell-based. To be noted: dose 0.1-10 µM.
The next data set deals with Natural killer cell. The experiment in a line: Immunostimulatory activity in human NK cells assessed as fold increase at 0.1 to 10 uM incubated for 48 hrs by flow cytometry analysis. The note with it: dose 0.1-10 µM. It counts as functional.

Chain of Toll-like receptor 7 (Homo sapiens) (Q9NYK1 whole entry): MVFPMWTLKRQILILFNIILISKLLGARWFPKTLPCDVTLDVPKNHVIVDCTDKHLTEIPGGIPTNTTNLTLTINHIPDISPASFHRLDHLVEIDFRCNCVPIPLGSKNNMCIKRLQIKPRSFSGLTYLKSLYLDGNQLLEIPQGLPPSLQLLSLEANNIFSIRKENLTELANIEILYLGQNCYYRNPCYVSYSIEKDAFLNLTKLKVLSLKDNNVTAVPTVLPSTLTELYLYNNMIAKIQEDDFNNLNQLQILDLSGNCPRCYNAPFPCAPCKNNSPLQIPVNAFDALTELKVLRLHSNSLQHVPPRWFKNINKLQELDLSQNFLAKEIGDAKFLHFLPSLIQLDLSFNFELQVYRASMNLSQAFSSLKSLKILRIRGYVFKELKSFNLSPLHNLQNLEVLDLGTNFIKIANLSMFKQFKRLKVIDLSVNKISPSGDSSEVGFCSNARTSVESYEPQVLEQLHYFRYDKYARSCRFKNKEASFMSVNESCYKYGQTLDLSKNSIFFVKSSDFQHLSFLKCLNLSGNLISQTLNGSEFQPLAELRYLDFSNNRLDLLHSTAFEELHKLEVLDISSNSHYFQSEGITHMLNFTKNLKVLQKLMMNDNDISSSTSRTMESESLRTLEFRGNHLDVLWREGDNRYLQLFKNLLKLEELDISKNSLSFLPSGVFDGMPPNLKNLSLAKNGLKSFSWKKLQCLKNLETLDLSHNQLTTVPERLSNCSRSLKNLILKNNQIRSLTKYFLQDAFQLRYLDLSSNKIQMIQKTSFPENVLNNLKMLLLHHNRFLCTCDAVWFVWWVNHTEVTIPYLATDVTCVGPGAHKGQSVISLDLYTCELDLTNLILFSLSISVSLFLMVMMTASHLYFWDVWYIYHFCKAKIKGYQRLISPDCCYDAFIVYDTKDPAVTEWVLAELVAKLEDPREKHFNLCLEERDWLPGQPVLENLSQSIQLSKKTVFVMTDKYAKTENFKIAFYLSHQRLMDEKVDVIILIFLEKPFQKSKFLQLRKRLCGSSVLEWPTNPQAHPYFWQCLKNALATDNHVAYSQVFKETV

One may read the CC50 as the concentration at which the toxic effect on the cells reaches its halfway point. The half-life is the time in which the quantity being followed falls by half. Consider `CC(C)OC(=O)c1c(NC(=S)Nc2ccc(F)c3ccccc23)sc2c1CCC2`, for which the “fold change (FC)” value was 7 with B cell, 2 with Monocyte and 2 in the data set on Natural killer cell. Moreover, in data set [1], the CC50 at 24 h was more than 100 µM. Also, the outcome (in the data set on THP-1 [2]; in data set [6]; in the data set on Macrophage [7]; with HCT-116 [8]; with B-cell line; in the data set on Macrophage [12]) was inactive. Moreover, the outcome (in data set [16]; in the data set on CD3-positive T cell) was inactive. Besides, the Activity result with THP-1 [3] was “Dose-Dependent Effect”; in the data set with HCT-116 [4] it was 11.5%; with PBMC, “Dose-Dependent Effect”; with THP-1 [9], “Dose-Dependent Effect”; in the data set on HCT-116 [11], 14.3%; in the data set with MCF7 [13], 16.4%. In the data set with MCF7 [15], the Activity turned out to be 25%. In addition, the outcome with THP-1 [5] and in the data set with THP-1 [10] was Active. In data set [14], the half-life at 250 µM stood at 90 min.
